Assay results reported in the supplement of paper PMC13380429.

How the values were obtained:
Details in all cases: 72 h
HepG2 [1] = assay: cell viability relative to DMSO; higher = less toxic
Calu-3 [2] = assay: as above
Caco-2 [3] = assay: as above
U2OS [4] = assay: as above
HepG2 [5] = assay: drug sensitivity score (DSS) for viability; higher = more toxic; extreme values may be limits of the assay
Calu-3 [6] = assay: as above
Caco-2 [7] = assay: as above
U2OS [8] = assay: as above
HepG2 [9] = assay: relative viability EC50 (midpoint between 100% and the lowest measured viability); higher = less toxic
Calu-3 [10] = assay: as above
Caco-2 [11] = assay: as above
U2OS [12] = assay: as above
Vero E6 [13] = assay: cell viability relative to DMSO; higher = less toxic
Vero E6 [14] = assay: drug sensitivity score (DSS) for viability; higher = more toxic; extreme values may be limits of the assay
Vero E6 [15] = assay: relative viability EC50 (midpoint between 100% and the lowest measured viability); higher = less toxic

| Compound | cell viability (HepG2 [1]; 1 nM) [%] | cell viability (HepG2 [1]; 10 nM) [%] | cell viability (HepG2 [1]; 100 nM) [%] | cell viability (HepG2 [1]; 1000 nM) [%] | cell viability (HepG2 [1]; 10000 nM) [%] | cell viability (Calu-3 [2]; 1 nM) [%] | cell viability (Calu-3 [2]; 10 nM) [%] | cell viability (Calu-3 [2]; 100 nM) [%] | cell viability (Calu-3 [2]; 1000 nM) [%] | cell viability (Calu-3 [2]; 10000 nM) [%] | cell viability (Caco-2 [3]; 1 nM) [%] | cell viability (Caco-2 [3]; 10 nM) [%] | cell viability (Caco-2 [3]; 100 nM) [%] | cell viability (Caco-2 [3]; 1000 nM) [%] | cell viability (Caco-2 [3]; 10000 nM) [%] | cell viability (U2OS [4]; 1 nM) [%] | cell viability (U2OS [4]; 10 nM) [%] | cell viability (U2OS [4]; 100 nM) [%] | cell viability (U2OS [4]; 1000 nM) [%] | cell viability (U2OS [4]; 10000 nM) [%] | drug sensitivity score (HepG2 [5]) | drug sensitivity score (Calu-3 [6]) | drug sensitivity score (Caco-2 [7]) | drug sensitivity score (U2OS [8]) | relative viability EC50 (HepG2 [9]) [µM] | relative viability EC50 (Calu-3 [10]) [µM] | relative viability EC50 (Caco-2 [11]) [µM] | relative viability EC50 (U2OS [12]) [µM] | cell viability (Vero E6 [13]; 1 nM) [%] | cell viability (Vero E6 [13]; 10 nM) [%] | cell viability (Vero E6 [13]; 100 nM) [%] | cell viability (Vero E6 [13]; 1000 nM) [%] | cell viability (Vero E6 [13]; 10000 nM) [%] | drug sensitivity score (Vero E6 [14]) | relative viability EC50 (Vero E6 [15]) [µM] |
| --- | --- | --- | --- | --- | --- | --- | --- | --- | --- | --- | --- | --- | --- | --- | --- | --- | --- | --- | --- | --- | --- | --- | --- | --- | --- | --- | --- | --- | --- | --- | --- | --- | --- | --- | --- |
| CCCOc1ccc2[nH]cc(C3=CCNCC3)c2n1 | 104 | 106 | 99.1 | 97.2 | 96.4 | 94.1 | 84.5 | 96.1 | 96.2 | 93.2 | 95.1 | 95.4 | 95.6 | 94.2 | 100 | 103 | 97.9 | 101 | 101 | 99.5 | 0 | 0 | 0 | 0 | > 10 | > 10 | > 10 | > 10 |  |  |  |  |  |  |  |
| O=C1C(Cl)=C(NCCN2CCOCC2)C(=O)c2ncccc21 | 94 | 90.7 | 87.6 | 86.1 | 1.6 | 110 | 104 | 100 | 109 | 5.1 | 94 | 90.9 | 89.5 | 68.4 | 1.1 | 98.1 | 94.1 | 99.5 | 95.3 | 0 | 7.8 | 4.7 | 9.4 | 6.2 | 2.04 | 3.61 | 1.46 | 2.8 | 102 | 100 | 100 | 99.3 | 65.4 | 1.7 |  |
| OCCn1cc(-c2cnc3nnn(Cc4ccc5ncccc5c4)c3n2)cn1 | 102 | 93.6 | 88.8 | 97.7 | 74.9 | 99 | 92.2 | 93 | 93.9 | 103 | 93.7 | 100 | 97.1 | 86.2 | 79.2 | 105 | 101 | 99.3 | 95.3 | 97.1 | 1.3 | 0 | 1.8 | 0 |  | > 10 | > 10 | > 10 | 99.7 | 105 | 97.7 | 97.7 | 96.4 | 0 | > 10 |
| CCOc1ccccc1C(=O)O [2-ethoxybenzoic-acid] | 111 | 107 | 93.5 | 101 | 91.7 | 113 | 99.9 | 97.1 | 99.6 | 108 | 102 | 93.1 | 95.5 | 97.9 | 93.9 | 95.8 | 99.6 | 93.7 | 94.8 | 98.7 | 0 | 0 | 0 | 0 | > 10 | > 10 | > 10 | > 10 |  |  |  |  |  |  |  |
| Cc1noc(-c2ccc(-c3ccc(CC(=O)O)cc3)cc2)c1NC(=O)O[C@H](C)c1ccccc1 [AM095] | 87.3 | 104 | 99.8 | 101 | 91.6 | 114 | 95.7 | 95.7 | 98.3 | 102 | 91.2 | 97.4 | 93.3 | 95.2 | 94.9 | 94.9 | 95.3 | 99 | 93 | 97.5 | 0 | 0 | 0 | 0 | > 10 | > 10 | > 10 | > 10 | 95 | 98 | 91.4 | 81.3 | 64.2 | 3.9 |  |
| O=c1ccc2c(OCCCCOc3ccccc3)c3ccoc3cc2o1 [AS-77] | 106 | 99.4 | 98.3 | 94.4 | 90 | 97.5 | 92.5 | 95.8 | 102 | 98.4 | 97 | 99 | 96.6 | 105 | 89.7 | 98.1 | 102 | 101 | 104 | 100 | 0 | 0 | 0 | 0 | > 10 | > 10 | > 10 | > 10 |  |  |  |  |  |  |  |
| N[C@H]1CC[C@H](N[C@@H]2C[C@H]2c2ccccc2)CC1 [ORY-1001] |  |  |  |  |  | 93.2 | 105 | 94.1 | 99.3 | 95.3 | 93.7 | 99.5 | 93.2 | 100 | 100 | 96.3 | 98.7 | 97.4 | 101 | 98.4 |  | 0 | 0 | 0 |  | > 10 | > 10 | > 10 | 97.7 | 103 | 99 | 96.3 | 103 | 0 | > 10 |
